# According to patent publication US8450313B2, “2,3-diaryl- or heteroaryl-substituted 1,1,1-trifluoro-2-hydroxypropyl compounds” (Hoffmann-La Roche Inc., priority 2009, dated 2013):
# Molecular target: T1, full length human recombinant glucocorticoid receptor (Homo sapiens, UniProt P04150)
# T1 construct: It contains some partially purified full length human recombinant glucocorticoid receptor; purchased Panvera/Invitrogen PV4302
# T1 sequence (P04150 1-777): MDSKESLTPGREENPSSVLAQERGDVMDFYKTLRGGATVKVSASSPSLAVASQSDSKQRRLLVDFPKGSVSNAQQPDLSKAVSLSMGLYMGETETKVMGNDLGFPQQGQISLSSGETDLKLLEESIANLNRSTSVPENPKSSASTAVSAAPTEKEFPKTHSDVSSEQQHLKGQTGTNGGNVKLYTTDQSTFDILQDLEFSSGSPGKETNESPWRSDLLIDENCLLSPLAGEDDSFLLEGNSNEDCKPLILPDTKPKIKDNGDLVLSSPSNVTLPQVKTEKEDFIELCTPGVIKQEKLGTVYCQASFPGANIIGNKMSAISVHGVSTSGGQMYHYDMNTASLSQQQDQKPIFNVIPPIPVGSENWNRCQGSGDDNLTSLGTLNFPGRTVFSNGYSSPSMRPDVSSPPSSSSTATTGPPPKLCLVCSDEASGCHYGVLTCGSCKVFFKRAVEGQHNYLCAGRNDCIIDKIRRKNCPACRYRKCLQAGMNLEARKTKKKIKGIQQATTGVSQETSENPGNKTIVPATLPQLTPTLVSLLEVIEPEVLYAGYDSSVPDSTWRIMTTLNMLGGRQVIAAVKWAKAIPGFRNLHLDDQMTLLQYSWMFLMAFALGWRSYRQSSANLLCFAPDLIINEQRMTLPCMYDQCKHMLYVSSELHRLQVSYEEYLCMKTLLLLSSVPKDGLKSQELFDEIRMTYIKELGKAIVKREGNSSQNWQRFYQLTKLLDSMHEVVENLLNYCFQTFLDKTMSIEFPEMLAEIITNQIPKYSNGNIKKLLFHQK
# Experiment: Glucocorticoid Receptor Binding Assay (Glucocorticoid Receptor Competitor Assay far red kit, fluorescence polarization)
# Settings: competition with fluorescent GR ligand Fluormone GS Far Red, 3 hours at 22° C., pH 7.4; Ki calculated from IC50 by Cheng-Prusoff
# Procedure, shortened: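 Compounds in serial dilution (from intermediate 4.2% DMSO stock) displace Fluormone GS Far Red from full-length human recombinant GR with stabilizing peptide, pH 7.4, incubated 3 hours at 22° C dark. Polarized fluorescence (610–660 nm) gives IC50 via sigmoidal fit, converted to Ki by Cheng-Prusoff.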
row,SMILES,Ki
1,"C[C@H](c1ccc(-c2ccc(C(=O)O)c(F)c2)cc1Cl)[C@@](O)(c1cccc2c1OCC(=O)N2C)C(F)(F)F (stereo in doubt) [Example 54, 3′-Chloro-3-fluoro-4′-[3,3,3-trifluoro-2-hydroxy-1-methyl-2-(4-methyl-3-oxo-3,4-dihydro-2H-benzo[1,4]oxazin-8-yl)-propyl]-biphenyl-4-carboxylic acid]",281 nM
2,"C=CCN1C(=O)COc2ccc([C@](O)([C@H](C)c3ccc(-c4ccc(C(=O)OC)c(F)c4)cc3Cl)C(F)(F)F)cc21 (stereo in doubt) [Example 70, 4′-[2-(4-Allyl-3-oxo-3,4-dihydro-2H-benzo[1,4]oxazin-6-yl)-3,3,3-trifluoro-2-hydroxy-1-methyl-propyl]-3′-chloro-3-fluoro-biphenyl-4-carboxylic acid methyl ester]",278 nM
3,"C[C@H](c1ccc(-c2ccc(F)c(C(=O)O)c2)cc1Cl)[C@@](O)(c1ccc2c(c1)n(C)c(=O)n2C)C(F)(F)F (stereo in doubt) [Example 74, 3′-Chloro-4′-[2-(1,3-dimethyl-2-oxo-2,3-dihydro-1H-benzoimidazol-5-yl)-3,3,3-trifluoro-2-hydroxy-1-methyl-propyl]-4-fluoro-biphenyl-3-carboxylic acid]",1.7 nM
4,"C[C@H](c1ccc(-c2ccc(C(=O)O)cc2)cc1Cl)[C@@](O)(c1ccc2c(c1)n(C)c(=O)n2C)C(F)(F)F (stereo in doubt) [Example 77, 3′-Chloro-4′-[2-(1,3-dimethyl-2-oxo-2,3-dihydro-1H-benzoimidazol-5-yl)-3,3,3-trifluoro-2-hydroxy-1-methyl-propyl]-biphenyl-4-carboxylic acid]",2.4 nM
5,"COc1cc(-c2ccc([C@@H](C)[C@@](O)(c3ccc4c(c3)n(C)c(=O)n4C)C(F)(F)F)c(Cl)c2)ccc1C(=O)O (stereo in doubt) [Example 80, 3′-Chloro-4′-[2-(1,3-dimethyl-2-oxo-2,3-dihydro-1H-benzoimidazol-5-yl)-3,3,3-trifluoro-2-hydroxy-1-methyl-propyl]-3-methoxy-biphenyl-4-carboxylic acid]",13.6 nM

# The next compounds have a lower Ki than those just listed; values first:
row,Ki,SMILES
1,1 nM,"C[C@H](c1ccc(-c2ccc(C(=O)O)c(Cl)c2)cc1Cl)[C@@](O)(c1ccc2c(c1)n(C)c(=O)n2C)C(F)(F)F (stereo in doubt) [Example 76, 3,3′-Dichloro-4′-[2-(1,3-dimethyl-2-oxo-2,3-dihydro-1H-benzoimidazol-5-yl)-3,3,3-trifluoro-2-hydroxy-1-methyl-propyl]-biphenyl-4-carboxylic acid]"
2,1.3 nM,"C[C@H](c1ccc(-c2cccc(C(=O)O)c2)cc1Cl)[C@@](O)(c1ccc2c(c1)n(C)c(=O)n2C)C(F)(F)F (stereo in doubt) [Example 78, 3′-Chloro-4′-[2-(1,3-dimethyl-2-oxo-2,3-dihydro-1H-benzoimidazol-5-yl)-3,3,3-trifluoro-2-hydroxy-1-methyl-propyl]-biphenyl-3-carboxylic acid]"
3,1 nM,"C[C@H](c1ccc(-c2ccc(Cl)c(C(=O)O)c2)cc1Cl)[C@@](O)(c1ccc2c(c1)n(C)c(=O)n2C)C(F)(F)F (stereo in doubt) [Example 79, 4,3′-Dichloro-4′-[2-(1,3-dimethyl-2-oxo-2,3-dihydro-1H-benzoimidazol-5-yl)-3,3,3-trifluoro-2-hydroxy-1-methyl-propyl]-biphenyl-3-carboxylic acid]"
4,1.4 nM,"C[C@H](c1ccc(-c2ccc(C(=O)O)cc2Cl)cc1Cl)[C@@](O)(c1ccc2c(c1)n(C)c(=O)n2C)C(F)(F)F (stereo in doubt) [Example 81, 2,3′-Dichloro-4′-[2-(1,3-dimethyl-2-oxo-2,3-dihydro-1H-benzoimidazol-5-yl)-3,3,3-trifluoro-2-hydroxy-1-methyl-propyl]-biphenyl-4-carboxylic acid]"
